Experimental data from patent publication US20220054548A1, “MIRNA FOR USE IN THERAPY” (King's College London, priority 2018, published 2022).
“Also recorded” adds a separate entry of the source.

What was measured:
[1] = test system: TREGS from WT and TREG^Δ142 mice; test: In vitro co-culture suppression assay after in vitro cilostamide treatment; format: cell-based, mouse
Excerpt: (§1) In vitro Suppression Assay. CD4^+ T cells were isolated from pooled peripheral lymph nodes and spleens of 5-6 week old mice using CD4 microbeads (Miltenyi Biotec). Cells were labeled with fluorochrome-conjugated anti-mouse antibodies to CD4, CD62L, CD44 and CD25 (eBioscience) and sorted using a BD FACSAria II flow cytometric cell sorter (BD Biosciences) to >95% purity for YFP^+ CD4^+ cells (TREGS) and naïve (CD25−, CD62L+, CD44−) CD4+ T cells (TEFFS). An aliquot of the sorted TREG population was stained with Live-Dead and anti-CD25 antibodies, fixed and permeabilised, then stained for FoxP3 and acquired on a flow cytometer (as before) to confirm purity. The TEFFS were labeled with 10 μM Cell Trace Violet (Life Technologies) according to the manufacturer's instructions, washed and then cultured in a 96-well U-bottom plate alone or with TREGS at ratios ranging from (TEFF:TREG) 1:1 to 32:1, in triplicate, in the presence of anti-CD3 and anti-CD28 Dynabeads (Life Technologies) at a bead:cell ratio of 2:1, and RPMI 1640 cell culture medium (Gibco, Life Technologies) supplemented with 10% fetal calf serum, 50 μM 2-Mercapto-ethanol, 2 μM L-glutamine, pyruvate, HEPES, non-essential amino acids and antibiotics at 37° C. 5% CO2. All 4 possible combinations of TREGS and TEFFS from each group were utilised. After 72 hours in culture, the cells were stained with fluorochrome-conjugated anti-mouse antibodies to Live/Dead (Life Technologies) and then proliferation of the TEFFS was assessed by flow cytometry based on Cell Trace Violet dilution (excluding YFP+ and dead cells). The numbers of non-proliferating cells (events in the first peak) and precursors of proliferating cells were calculated using standard formulae. Percentage suppression (S) of proliferation was calculated using the formula: […]
In vitro Cilostamide treatment. […] They were then cultured in the presence of 10 μM cilostamide (Sigma Aldrich), or equivalent PBS/DMSO control for 48 hours before being washed twice, counted and used in an in vitro co-culture suppression assay, as above. […]

[2] = test system: miR-142-deficient TREGS; test: Co-culture TREG suppression assay ex vivo after 4 weeks of in vivo cilostamide treatment; parameters: species or system mouse; details: TREGS isolated ex vivo after 4 weeks of cilostamide treatment
Excerpt: as §1, with “The TEFFS were labeled with 10 μM Cell Trace Violet (Life Technologies) according to the manufacturer's instructions, washed and then cultured in a 96-well U-bottom plate alone or with TREGS at ratios ranging from (TEFF:TREG) 1:1 to 32:1, in triplicate, in the presence of anti-CD3 and anti-CD28 Dynabeads (Life Technologies) at a bead:cell ratio of 2:1, and RPMI 1640 cell culture medium (Gibco, Life Technologies) supplemented with 10% fetal calf serum, 50 μM 2-Mercapto-ethanol, 2 μM L-glutamine, pyruvate, HEPES, non-essential amino acids and antibiotics at 37° C. 5% CO2. All 4 possible combinations of TREGS and TEFFS from each group were utilised.” left out
In vivo cilostamide treatment. […] The mice were weighed every other day and monitored for signs of disease. […]

[3] = test system: TREG^Δ142 mice; test: In vivo cilostamide treatment of TREG^Δ142 mice (weight, survival); parameters: species or system mouse; details: 6.4 mg/kg intra-peritoneal cilostamide on alternate days from 8 weeks of age
Method: In vivo cilostamide treatment. Littermate TREG^Δ142 and WT mice were treated from 8 weeks of age with alternate day intra-peritoneal injections of either 6.4 mg/kg cilostamide (Sigma) in PBS 10% DMSO, or a control solution of PBS 10% DMSO. The mice were weighed every other day and monitored for signs of disease. A proportion of mice were sacrificed after 4 weeks of treatment and TREGS were isolated directly ex vivo for use in an in vitro co-culture suppression assay (as before). A proportion of mice were kept alive for as long as possible (either until they lost more than 15% of their body weight and had to be euthanised, or until the end of the experiment).

## CN(C(=O)CCCOc1ccc2[nH]c(=O)ccc2c1)C1CCCCC1 [cilostamide]
[1]; TEFFS pre-treated with cilostamide
  TREG suppressive function (suppression of TEFF proliferation): No rescue of suppressive function
[1]; TREG^Δ142 TREGS pre-treated with cilostamide 10 μM prior to co-culture with untreated TEFFS in the absence of cilostamide
  TREG suppressive function (suppression of TEFF proliferation): restored the suppressive function; also recorded: no significant difference
[1]; WT TREGS treated with cilostamide in vitro, compared with WT TREGS
  TREG suppressive capacity: marginal augmentation of ex vivo suppressive capacity
[2]
  Suppressive activity of miR-142-deficient TREGS: fully restored suppressive activity
[3]
  Lethal autoimmune disease (weight and survival): prevented lethal autoimmune disease
